This note sets out measurements from patent US9217743B2, “Screening method utilizing thalidomide-targeting factor” (Tokyo Institute of Technology, priority 2009, dated 2015).

“Also recorded” adds a separate entry of the source.

In one series the test system is zebrafish embryos. Nature of the series: Zebrafish embryo development, pectoral fins and otic vesicles. The series is classed as in vivo, zebrafish (Danio rerio). The text has this:
To elucidate possible effects of thalidomide on zebrafish development, dechorionated embryos were transferred to media containing various concentrations of thalidomide. […] More specifically, formation of the endoskeletal disc of the pectoral fin was inhibited at 75 hpf (FIG. 4A), and the size of otic vesicles at 30 hpf was reduced (FIG. 4B). Retardation of pectoral fin development was also detected at 48-hpf embryos (FIGS. 5C and D). Recent studies have reported that development of pectoral fins and otic vesicles in teleosts (including zebrafish) shares common molecular mechanisms with the limb and ear development in tetrapods (Cited Literatures 24 to 26).
Thalidomide was dissolved in DMSO and added to a final concentration of 400 μM to E3 medium prewarmed to […]. Zebrafish embryos were dechorionated prior to thalidomide as follows: At 2 hpf, the embryos were incubated in E3 medium containing 2 mg/ml Protease type XIV (Sigma) for three minutes and then washed five times with the medium. After dechorionation, embryos were immediately transferred to E3 medium containing thalidomide, and observed for three days. The thalidomide-containing medium was exchanged every 12 hours.
Extracellular matrices associated with chondrocytes were stained with Alcian blue (Cited Literature 40). Zebrafish embryos were fixed in 3.7% neutral buffered formaldehyde for overnight. The next day, the embryos were washed with 100% ethanol and rehydrated with PBS. Subsequently, the embryos were incubated with a solution of 0.05% trypsin in saturated sodium tetraborate for one to three hours. Pigmentation of fish was removed by 3% hydrogen peroxide/1% potassium hydroxide solution. Stained embryos were stored in 70% glycerol-containing PBS solution.
Microinjection into one-cell stage embryos was carried out in accordance with Cited Literature 39. The present inventors used a nitrogen gas-pressure microinjector (IM 300, Narishige Co., Ltd.) for injection. Capped mRNAs were prepared in vitro using the mMESSAGE mMACHINE in vitro transcription kit (Ambion).
Zebrafish embryos at 48 hpf were anesthetized with 1% methylcellulose and 0.003% 3-amino benzoic acid ethyl ester (Sigma) and mounted on a slide glass. Then, otic vesicles of ten embryos randomly selected from each sample were photographed. The size was measured using the NIH image J software and compared to that of control. Average sizes and standard errors were calculated, and p-values were determined by the Mann-Whitney U test.

In series [1] the target is T1, CRBN-containing E3 complex (Homo sapiens, UniProt Q96SW2).
T1 construct: expressed in transfected cells; host or cells: 293T stably expressing FH-CRBN
T1 sequence (Q96SW2 whole entry): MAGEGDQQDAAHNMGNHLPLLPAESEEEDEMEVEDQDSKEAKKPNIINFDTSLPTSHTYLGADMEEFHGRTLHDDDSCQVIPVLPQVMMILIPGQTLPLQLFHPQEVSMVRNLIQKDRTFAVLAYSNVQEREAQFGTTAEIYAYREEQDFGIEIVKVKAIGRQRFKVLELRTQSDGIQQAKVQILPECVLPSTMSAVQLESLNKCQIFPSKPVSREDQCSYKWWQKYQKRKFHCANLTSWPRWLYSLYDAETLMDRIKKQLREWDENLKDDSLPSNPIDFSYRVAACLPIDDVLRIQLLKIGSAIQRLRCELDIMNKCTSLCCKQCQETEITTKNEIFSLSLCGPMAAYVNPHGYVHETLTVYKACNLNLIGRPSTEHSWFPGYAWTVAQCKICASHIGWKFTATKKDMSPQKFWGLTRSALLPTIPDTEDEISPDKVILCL
T1 sequence (Q16531 2-1140 partner limits assumed): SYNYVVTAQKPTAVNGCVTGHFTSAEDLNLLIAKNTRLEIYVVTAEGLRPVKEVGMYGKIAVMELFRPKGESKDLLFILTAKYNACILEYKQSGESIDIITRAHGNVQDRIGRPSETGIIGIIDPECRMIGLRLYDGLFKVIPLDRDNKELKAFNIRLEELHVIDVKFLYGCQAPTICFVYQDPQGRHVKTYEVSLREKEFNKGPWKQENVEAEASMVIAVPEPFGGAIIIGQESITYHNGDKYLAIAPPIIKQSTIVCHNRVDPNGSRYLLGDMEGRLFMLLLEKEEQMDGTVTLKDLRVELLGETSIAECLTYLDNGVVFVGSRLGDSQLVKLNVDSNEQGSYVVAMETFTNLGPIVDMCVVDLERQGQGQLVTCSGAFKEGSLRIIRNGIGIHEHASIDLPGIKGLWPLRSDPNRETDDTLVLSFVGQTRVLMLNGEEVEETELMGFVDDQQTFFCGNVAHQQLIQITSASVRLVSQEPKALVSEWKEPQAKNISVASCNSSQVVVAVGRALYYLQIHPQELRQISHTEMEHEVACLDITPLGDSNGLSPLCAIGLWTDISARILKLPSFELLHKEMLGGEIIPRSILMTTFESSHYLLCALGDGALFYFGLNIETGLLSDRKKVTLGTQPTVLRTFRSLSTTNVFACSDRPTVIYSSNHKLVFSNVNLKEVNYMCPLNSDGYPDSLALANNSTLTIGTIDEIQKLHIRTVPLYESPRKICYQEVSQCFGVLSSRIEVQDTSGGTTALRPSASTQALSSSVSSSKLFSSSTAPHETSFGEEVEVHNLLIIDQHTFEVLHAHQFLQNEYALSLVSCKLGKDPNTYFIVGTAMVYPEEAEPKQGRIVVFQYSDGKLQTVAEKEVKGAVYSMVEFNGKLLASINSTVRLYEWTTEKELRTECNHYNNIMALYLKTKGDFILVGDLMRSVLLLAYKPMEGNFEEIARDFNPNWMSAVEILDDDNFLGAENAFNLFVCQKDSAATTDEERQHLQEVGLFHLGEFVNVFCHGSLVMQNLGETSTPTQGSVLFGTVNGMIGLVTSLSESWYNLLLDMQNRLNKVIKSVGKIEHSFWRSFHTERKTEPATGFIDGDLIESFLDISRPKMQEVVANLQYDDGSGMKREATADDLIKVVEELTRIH
T1 sequence (Q13619 whole entry partner): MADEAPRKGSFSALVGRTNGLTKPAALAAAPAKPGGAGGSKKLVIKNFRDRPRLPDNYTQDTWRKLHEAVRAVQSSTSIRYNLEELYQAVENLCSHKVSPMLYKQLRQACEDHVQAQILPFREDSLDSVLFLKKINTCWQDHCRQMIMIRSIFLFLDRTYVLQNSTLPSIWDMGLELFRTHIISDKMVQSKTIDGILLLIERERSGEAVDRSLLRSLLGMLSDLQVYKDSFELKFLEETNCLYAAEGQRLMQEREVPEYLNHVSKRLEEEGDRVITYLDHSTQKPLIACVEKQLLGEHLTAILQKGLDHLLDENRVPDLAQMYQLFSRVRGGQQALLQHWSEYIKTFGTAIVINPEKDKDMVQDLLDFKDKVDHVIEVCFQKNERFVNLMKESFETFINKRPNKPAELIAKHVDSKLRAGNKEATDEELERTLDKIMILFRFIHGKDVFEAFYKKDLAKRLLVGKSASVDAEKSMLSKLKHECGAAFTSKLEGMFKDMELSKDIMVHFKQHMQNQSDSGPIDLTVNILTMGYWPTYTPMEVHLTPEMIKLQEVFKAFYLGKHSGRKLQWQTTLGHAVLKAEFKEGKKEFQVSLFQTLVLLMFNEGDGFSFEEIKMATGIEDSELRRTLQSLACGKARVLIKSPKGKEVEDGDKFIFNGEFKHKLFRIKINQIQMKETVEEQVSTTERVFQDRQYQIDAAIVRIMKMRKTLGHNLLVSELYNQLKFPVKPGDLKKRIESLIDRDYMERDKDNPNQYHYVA
T1 sequence (P62877 2-108 partner limits assumed): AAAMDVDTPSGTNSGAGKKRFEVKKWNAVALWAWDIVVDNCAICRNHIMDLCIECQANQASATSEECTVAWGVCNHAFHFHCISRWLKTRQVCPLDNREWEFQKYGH
Nature of the series: Autoubiquitination in live cells, 293T cells stably expressing FH-CRBN. In kind it is cell-based. To be noted: thalidomide 10, 30 and 100 μM, with MG132. As for the experimental part:
(§1) The present inventors examined whether thalidomide would inhibit ubiquitination of the CRBN-containing E3 complex. 293T cells stably expressing FH-CRBN or FH-CRBN YW/AA were treated with MG132 and thalidomide (10, 30, and 100 μM) at similar concentration relative to the therapeutic doses used in human.
(§2) The assays were performed as described (Cited Literature 38). 293T cells stably expressing FH-CRBN or its mutant were treated with 10 μM MG132 or DMSO (vehicle) for three hours. The cells lysate were prepared using RIPA buffer containing 25 μM MG132 and 10 mM N-ethylmaleimide. FH-CRBN was immunoprecipitated and analyzed as described above. Various concentrations of thalidomide were added to cells one hour prior to MG132 treatment.

The target of a further series is T2, zCrbn (Danio rerio, UniProt Q68EH9, D160E).
T2 construct: expressed in transfected cells; host or cells: 293T (stably expressing FH-zCrbn)
T2 sequence (Q68EH9 1-431 D160E): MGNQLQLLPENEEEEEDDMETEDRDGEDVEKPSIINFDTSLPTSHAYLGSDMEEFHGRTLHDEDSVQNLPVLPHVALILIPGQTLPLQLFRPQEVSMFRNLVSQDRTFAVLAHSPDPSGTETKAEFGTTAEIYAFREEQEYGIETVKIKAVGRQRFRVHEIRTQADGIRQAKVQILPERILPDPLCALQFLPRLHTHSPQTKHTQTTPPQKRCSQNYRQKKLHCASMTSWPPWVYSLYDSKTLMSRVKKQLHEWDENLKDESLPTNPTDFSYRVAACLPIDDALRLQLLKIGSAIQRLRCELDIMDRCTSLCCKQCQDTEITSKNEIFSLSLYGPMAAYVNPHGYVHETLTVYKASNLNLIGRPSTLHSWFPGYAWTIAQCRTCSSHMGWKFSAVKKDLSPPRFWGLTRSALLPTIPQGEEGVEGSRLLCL
Nature of the series: Binding of FH-zCrbn from 293T extracts to thalidomide beads. To be noted: FH-zCrbn in 293T extract. Also noted: species or system zebrafish. On the procedure: FIG. 14 relates to biochemical analysis results of zCrbn. […] Bound proteins were eluted by thalidomide, and eluate were analyzed by western blotting. zCrbn bound to thalidomide. (B) Lysate from 293T cells overexpressing FH-zCrbn was immunoprecipitated with anti-FLAG antibody, and DDB1 was detected by western blotting. […] (C) Lysate from FLAG-zCrbn (wild type) or FLAG-zCrbn YW/AA overexpressed in 293T cells was mixed with thalidomide beads. For quantification, various amounts of input and eluate fraction were analyzed by western blotting.

The next series concerns the target T3, CRBN YW/AA (Homo sapiens, UniProt Q96SW2, W386A/Y384A).
T3 construct: expressed in transfected cells; host or cells: 293T stably expressing FH-CRBN YW/AA
Nature of the series: Autoubiquitination in live cells, 293T cells stably expressing FH-CRBN YW/AA. In kind it is cell-based. As to conditions: thalidomide 10, 30 and 100 μM, with MG132. On the procedure: as §1, §2

T3 sequence (Q96SW2 whole entry Y384A/W386A): as the sequence (Q96SW2 whole entry) above, with Y384A, W386A counted along it
T3 sequence (Q16531 2-1140 partner limits assumed): as the sequence (Q16531 2-1140 partner limits assumed) above
T3 sequence (Q13619 whole entry partner): as the sequence (Q13619 whole entry partner) above
T3 sequence (P62877 2-108 partner limits assumed): as the sequence (P62877 2-108 partner limits assumed) above

Take `O=C1CCC(N2C(=O)c3ccccc3C2=O)C(=O)N1` (stereo not drawn) [thalidomide]: the “size of otic vesicles, of the control size” value was 64.5% in the series with zebrafish embryos (400 μM thalidomide, uninjected embryos) and “approximately 66%” with zebrafish embryos (thalidomide, embryos overexpressing wild-type zCrbn). Also, the “size of otic vesicles” value is listed as “reduced” in the series on zebrafish embryos (30 hpf) and “did not affect” in the series with zebrafish embryos (thalidomide, embryos overexpressing zCrbn YW/AA). Also, the “formation of the endoskeletal disc of the pectoral fin” value in the series with zebrafish embryos (75 hpf) was “inhibited”. In the series with zebrafish embryos (embryos in thalidomide-containing media from 2 hpf), the “development of pectoral fins and otic vesicles” value is on record as “disturbed”. Moreover, in series [1], the “autoubiquitination of wild-type CRBN” value is reported as “potently inhibited; also recorded: suppressed”. Also, the “binding of zCrbn to thalidomide” value at zCrbn was “bound”. Moreover, at CRBN YW/AA, the “autoubiquitination of CRBN YW/AA” value was “not affected”.
